# Experiments:
# [1] = target: RAC-alpha serine/threonine-protein kinase (Homo sapiens, UniProt P31749); experiment: Homogeneous Time Resolved Fluorescence (HTRF) assay (AKT1)
# [2] = NanoBRET assay (AKT1); conditions: Homo sapiens
# [3] = NanoBRET assay (AKT2); conditions: Homo sapiens
# [4] = NanoBRET assay (AKT3); conditions: Homo sapiens
# ZR-75-1 = experiment: CellTiter-Glo luminescent cell viability assay (CTG) with ZR-75-1 cells; format: functional, cell-based; conditions: Homo sapiens
# AN3-CA = experiment: CellTiter-Glo luminescent cell viability assay (CTG) with AN3-CA cells; format: functional, cell-based; conditions: Homo sapiens
# Sequence of RAC-alpha serine/threonine-protein kinase (P31749 whole entry): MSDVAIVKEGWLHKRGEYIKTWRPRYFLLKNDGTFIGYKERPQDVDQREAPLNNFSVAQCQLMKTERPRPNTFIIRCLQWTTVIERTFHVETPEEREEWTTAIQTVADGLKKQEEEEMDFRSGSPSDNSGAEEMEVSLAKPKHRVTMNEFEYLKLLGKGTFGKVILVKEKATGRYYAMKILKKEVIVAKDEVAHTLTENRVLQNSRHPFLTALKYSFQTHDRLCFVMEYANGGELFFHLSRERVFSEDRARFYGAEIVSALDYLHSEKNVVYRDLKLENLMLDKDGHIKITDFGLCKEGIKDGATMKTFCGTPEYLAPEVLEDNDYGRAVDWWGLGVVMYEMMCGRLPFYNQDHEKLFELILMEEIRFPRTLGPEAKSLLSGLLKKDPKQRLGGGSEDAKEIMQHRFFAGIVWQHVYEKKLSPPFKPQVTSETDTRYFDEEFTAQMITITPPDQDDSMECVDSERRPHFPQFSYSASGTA
compound,measurement,setting,value
C=CC(=O)Nc1ccc2[nH]c(=O)n(C3CCN(Cc4ccc(-c5ccc6c(c5)NC(=O)CO6)cc4)CC3)c2c1 [RL2578],IC50,[1],9.2 µM (not active)
same,EC50,[2],3.5 µM (not active)
same,IC50,[2],1.9 µM (not active)
same,EC50,[3],4.8 µM (not active)
same,IC50,[3],8.3 µM (not active)
same,EC50,[4],9.3 µM (not active)
same,IC50,[4],18 µM (not active)
same,EC50,ZR-75-1,4.2 µM (not active)
same,EC50,AN3-CA,18 µM (not active)
